Data published in patent publication EP2698385A1, “Detection of synthetic cannabinoids” (priority 2012, dated 2014).

Tests used:
Assay type in all cases: binding, sheep
[1] = tested on: Antibody to Immunogen VIII; conditions: Cross-reactants at 100 ng/ml; Antibody to Immunogen VIII
[2] = tested on: Antibody to Immunogen VII; conditions: Cross-reactants at 100 ng/ml; Antibody to Immunogen VII
Antibody to Immunogen IV = conditions: Cross-reactants at 100 ng/ml; Antibody to Immunogen IV
Antibody to Immunogen I = conditions: Cross-reactants at 100 ng/ml; Antibody to Immunogen I
In short: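 Sheep anti-Immunogen I IgG coated on plates, then JWH-018 standards (0–40 ng/ml) competed with hapten-HRP conjugate for 1 h at 25°C. TMB read-out at 450 nm, 4-parameter fit. IC50 is the standard concentration giving 50% B/B0; cross-reactivity of related cannabinoids taken from the calibration curves.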

Antibody to Immunogen II = experiment: Competitive ELISA (Example 36), antibody RS1833B12, tracer ESC4555/LK959, standard JWH-018; conditions: Cross-reactants at 100 ng/ml; Antibody to Immunogen II
Experimental: An aqueous solution of each immunogen was formulated with Freund's Complete Adjuvant (FCA) to form an emulsion consisting of 2mg/ml* immunogen in 50% (v/v) FCA. Three sheep were immunised with this emulsion (1° immunisation), 0.25ml being intramuscularly injected at each of four sites in the flank of each animal. Subsequent immunizations (boosts) contained 1mg/ml* immunogen. All boosts were emulsified in 50% (v/v) Freund's Incomplete Adjuvant (FIA) and were administered in the same manner as the 1° immunisation, at monthly intervals. Blood sampling took place 7 to 14 days after each boost. *The general procedure for immunogen administration is outlined above, however, it was necessary to deviate from this protocol in some cases, due to reduced immunogen concentrations (Immunogens II, IV, VII and VIII) and/or amount available (Immunogen VIII). Any deviations from the protocol described are outlined in Table 1A below and highlighted in bold. Table 1A: Amount and volume of immunogens administered for primary and subsequent boosts
The appropriate antibody coating dilution was determined using standard ELISA checkerboard techniques. The plate was incubated overnight at 4°C, washed 4 times over 10 minutes with Tris buffered saline containing Tween 20 (TBST) and tapped dry. […] 75µl of conjugate (appropriate hapten-HRP) diluted in Tris buffer (pH 7.2) containing EDTA, D-mannitol, sucrose, thimerosal and BSA, was added to each of the wells. The appropriate dilution of conjugate was also determined using standard ELISA checkerboard techniques. The plate was incubated at 25°C for 1 hour. Excess unbound conjugate was removed by washing 6 times over a 10 minute period with TBST. 125µl of tetramethylbenzidine (TMB) substrate solution was added to each well of the plate that was then incubated for 20 minutes in the dark at room temperature. The reaction was terminated by addition of 125µl 0.2M H2SO4 to each well. The absorbance was then measured at 450nm using a microtiter plate reader. The data are inputted to a computer program called 'KC Junior'. It is a 4 parameter fit curve and allow the calculatation of concentrations between the standard runs.
In a similar manner to that described above, the wells of a 96-well microtiter plate were coated with the IgG fraction of the antiserum raised to Immunogens I or II.
The data set our in Tables 3 and 4 are generated using antibodies raised against the indicated Immunogens in a competitive binding assay with the indicated tracers, using the indicated standards: Table 2
Using the calibration curves generated and employing a single level of cross reactants, these were used to determine the cross-reactivity of each immunoassay with these substances. These are the standards used for the IC50 and cross-reactivity data generation • Immunogen I - JWH-018 • Immunogen II - JWH-018 • Immunogen IV - JWH-018 • Immunogen VII - JWH-015 • Immunogen VIII - JWH-018 Table 4: Cross reactivity of the competitive ELISAs for synthetic cannabinoids and their metabolites

| Compound | %B/B0 [1] | %B/B0 [2] | %B/B0 (Antibody to Immunogen IV) | %B/B0 (Antibody to Immunogen I) | %B/B0 (Antibody to Immunogen II) |
| --- | --- | --- | --- | --- | --- |
| CS(=O)(=O)O.Cc1c(C(=O)c2cccc3ccccc23)c2cccc3c2n1[C@H](CN1CCOCC1)CO3 [(+)WIN 55212-2 (mesylate), (+)WIN 55212-2] | 107.12% | 24.08% | 92.76% | 17.00% | 83.87% |
| CC(O)CCCn1cc(C(=O)c2cccc3ccccc23)c2ccccc21 (racemic) [(±)-JWH 018 N-(4-hydroxypentyl) metabolite] | 21.94% | 57.37% | 52.29% | 4.23% | 53.99% |
| CCCCCn1cc(C(=O)c2cccc3ccc(C)cc23)c2ccccc21 [JWH 122 7-methylnaphthyl isomer] | 38.48% | 92.44% | 13.48% | 36.46% | 38.28% |
| CCCCCn1cc(C(=O)c2cccc3c(Cl)cccc23)c2ccccc21 [JWH-398 5-chloronaphthyl isomer] | 19.67% | 91.33% | 7.06% | 35.53% | 23.50% |
| CCCCCn1cc(C(=O)c2cccc3cc(C)ccc23)c2ccccc21 [JWH 122 6-methylnaphthyl isomer] | 20.46% | 86.66% | 8.12% | 12.55% | 39.17% |
| O=C(c1cccc2ccccc12)c1cn(CCN2CCOCC2)c2cc(O)ccc12 [JWH-200 6-hydroxyindole metabolite] | 83.20% | 65.52% | 94.41% | 7.27% | 61.65% |
| CCCCn1cc(C(=O)c2cccc3ccccc23)c2ccc(O)cc21 [JWH-073 6-hydroxyindole metabolite] | 93.52% | 61.83% | 74.89% | 5.93% | 28.03% |
| O=C(c1cccc2ccccc12)c1cn(CCN2CCOCC2)c2cccc(O)c12 [JWH-200 4-hydroxyindole metabolite] | 91.82% | 91.15% | 87.88% | 44.97% | 78.17% |
| CCCCCn1cc(C(=O)c2cccc3ccccc23)c2cccc(O)c21 [JWH-018 7-hydroxyindole metabolite] | 94.46% | 68.53% | 93.31% | 6.72% | 34.79% |
| CN1CCCCC1Cn1cc(C(=O)c2ccccc2I)c2ccccc21 (centres unmarked) [AM-2233] | 91.25% | 72.46% | 92.10% | 16.97% | 86.43% |
| CCCCn1cc(C(=O)c2c(C)ccc3ccccc23)c2ccccc21 [JWH 073 2-methylnaphthyl analog] | 78.79% | 76.74% | 34.47% | 21.84% | 43.34% |
| O=C(c1cccc2ccccc12)c1cn(CCCCCF)c2ccccc12 [AM-2201] | 16.74% | 55.28% | 6.20% | 3.72% | 11.72% |
| CCCCCn1cc(C(=O)c2ccc(C)c3ccccc23)c2ccccc21 [JWH-122] | 14.43% | 89.37% | 3.94% | 62.98% | 44.55% |
| O=C(c1cccc2ccccc12)c1cn(CCN2CCOCC2)c2ccc(O)cc12 [JWH-200 5-hydroxyindole metabolite] | 90.88% | 82.42% | 97.53% | 12.61% | 64.99% |
| CCCCn1c(C)c(C(=O)c2cccc3ccccc23)c2ccccc21 [JWH-016] | 75.24% | 19.31% | 91.14% | 20.71% | 68.73% |
| CCCCn1cc(C(=O)c2cccc3ccccc23)c2cccc(O)c21 [JWH-073 7-hydroxyindole metabolite] | 94.04% | 61.78% | 96.95% | 5.59% | 46.05% |
| CCCCCn1cc(C(=O)c2cccc3c(OC)cccc23)c2ccccc21 [JWH-081 5-methoxynaphthyl isomer] | 26.56% | 94.16% | 6.24% | 18.51% | 60.90% |
| O=C(c1ccc(Cl)c2ccccc12)c1cn(CCCCCO)c2ccccc12 [JWH-398 N-(5-hydroxypentyl) metabolite] | 51.33% | 82.97% | 22.01% | 48.07% | 67.49% |
| CN1CCCCC1Cn1cc(C(=O)c2cccc3ccccc23)c2ccccc21 (centres unmarked) [AM-1220] | 106.65% | 49.71% | 86.93% | 4.45% | 77.46% |
| CCCCCCn1cc(C(=O)c2cccc3ccccc23)c2ccccc21 [JWH-019] | 74.50% | 70.05% | 21.96% | 7.22% | 15.42% |
| CC(O)CCn1cc(C(=O)c2cccc3ccccc23)c2ccccc21 (centres unmarked) [JWH-073 N-(3-hydroxybutyl) metabolite] | 94.04% | 43.39% | 53.52% | 3.10% | 54.52% |
| CCCCCCCn1cc(C(=O)c2cccc3ccccc23)c2ccccc21 [JWH-020] | 100.73% | 81.30% | 73.73% | 16.03% | 35.75% |
| CC(C)CCn1cc(C(=O)c2cccc3ccccc23)c2ccccc21 [JWH 018 N-(3-methylbutyl) isomer (JWH-073 3-methylbutyl homologue), JWH 018 N-(3-methylbutyl) isomer] | 53.29% | 48.81% | 12.75% | 3.16% | 30.38% |
| CCCCCn1cc(C(=O)c2ccccc2OC)c2ccccc21 [RCS-4 2-methoxy isomer] | 29.32% | 87.27% | 15.28% | 29.14% | 42.74% |
| CCCCCn1cc(C(=O)c2cccc3ccccc23)c2ccc(OC)cc21 [JWH-018 6-methoxyindole analogue] | 77.22% | 72.33% | 90.65% | 10.55% | 20.44% |
| O=C(c1cccc(I)c1)c1cn(CCCCCF)c2ccccc12 [AM-694 3-iodo isomer] | 12.71% | 89.49% | 37.20% | 31.37% | 48.58% |
| CCCCn1cc(C(=O)c2cccc3ccccc23)c2cc(O)ccc21 [JWH-073 5-hydroxyindole metabolite] | 90.70% | 75.11% | 84.06% | 7.34% | 20.73% |
| O=C(c1cccc2ccccc12)c1cn(CCCCO)c2ccccc12 [JWH-073 N-(4-hydroxybutyl) metabolite] | 57.99% | 48.81% | 52.61% | 3.22% | 60.01% |
